Key:
Trypanosoma cruzi [1] = experiment: GSK_TCAKS: pIC50 Trypanosoma cruzi viability assay using beta-GAL activity. This assay was run at single shot at 5uM compound concentration per well. The biological reagents consisted of NIH-3T3 host cells and trypomastigotes parasitic cells; both cell types were set to a 3.3 * 10^5 cells/mL dilution in assay DMEM by means of a CASY cell counter device using a 60um capillary. 6 uL of the mixture were dispensed per well (about 1 * 10^3 host-cells and 1 * 10^3 parasites) with a Multidrop Combi dispenser. […] In all wells, the percentage of DMSO never exceeded 0.5%. Plates incubated for four days at 37C, 5% CO2. The substrate used for the assay fluorescence intensity (FLINT) readout was resorufin-beta-D-galactopiranoside (Sigma-Aldrich) at 5uM per well. It was diluted in PBS supplemented with the soft detergent Igepal (Fluka).; assay type: functional, organism-based, Mus musculus; conditions: Tulahuen, NIH3T3
Trypanosoma cruzi [2] = experiment: (§1) GSK_TCAKS: pIC50 Trypanosoma cruzi Imaging: Infected Cells. […] Cells were then washed once with PBS before infection. T. cruzi trypomastigotes, collected at days 5 to 8 after infection from LLC-MK2 parasite infected cultures, were allowed to swim out for 4h at 37C from a centrifuged pellet (2,500 rpm/10 min/room temperature). Trypomastigotes were then collected and counted in a CASY Cell Counter. Trypomastigotes, in supplemented DMEM, were added to H9c2 cultures in a multiplicity of infection of 1 and incubated for 18 h. Cells were washed once with PBS before incubation of the infected H9c2 monolayer with trypsin (Life-Technologies) to detach cells from the flask. Cells were counted in a CASY Cell Counter using a 150 um capillary and their density set at 5 * 10^4 cells per mL in supplemented assay DMEM. Infected H9c2 were dispensed into 384-well poly-lysine coated assay plates at 50uL per well using a Multidrop Combi dispenser. After seeding them, the plates were incubated at 37C, 5% CO2 for 72h. Cultures were then fixed and stained by addition of 50 uL of a solution containing 8% formaldehyde and 4 uM DRAQ5 DNA dye (BioStatus, UK) per well. […] Five images were collected per well for reliable statistical analysis. Automated image analysis was performed with a script developed on Acapella High Content Imaging and Analysis Software (PerkinElmer). Output: percentage of infected cells per well as a second infection marker.; assay type: functional, organism-based, Rattus norvegicus; conditions: H9c2, 4 h
Trypanosoma cruzi [3] = experiment: GSK_TCAKS: pIC50 Trypanosoma cruzi Imaging: Amastigotes/Cell. […] Cells were then washed once with PBS before infection. T. cruzi trypomastigotes, collected at days 5 to 8 after infection from LLC-MK2 parasite infected cultures, were allowed to swim out for 4h at 37C from a centrifuged pellet (2,500 rpm/10 min/room temperature). Trypomastigotes were then collected and counted in a CASY Cell Counter. Trypomastigotes, in supplemented DMEM, were added to H9c2 cultures in a multiplicity of infection of 1 and incubated for 18 h. Cells were washed once with PBS before incubation of the infected H9c2 monolayer with trypsin (Life-Technologies) to detach cells from the flask. Cells were counted in a CASY Cell Counter using a 150 um capillary and their density set at 5 * 10^4 cells per mL in supplemented assay DMEM. Infected H9c2 were dispensed into 384-well poly-lysine coated assay plates at 50uL per well using a Multidrop Combi dispenser. After seeding them, the plates were incubated at 37C, 5% CO2 for 72h. Cultures were then fixed and stained by addition of 50 uL of a solution containing 8% formaldehyde and 4 uM DRAQ5 DNA dye (BioStatus, UK) per well. […] Five images were collected per well for reliable statistical analysis. Automated image analysis was performed with a script developed on Acapella High Content Imaging and Analysis Software (PerkinElmer). Output: number of amastigotes per cell as infection level measurement.; assay type: functional, organism-based, Rattus norvegicus; conditions: H9c2, 4 h
Trypanosoma cruzi [4] = experiment: as §1, with “H2C9” for “Trypanosoma cruzi”, “H9c2 Host Cardiomyocytes.” for “Infected Cells.”, “Number” for “percentage”, “H9c2 Host Cardiomyocytes nuclei to determine drug-related cytotoxicity.” for “infected cells per well as a second infection marker.”; assay type: functional, organism-based, Rattus norvegicus; conditions: H9c2, 4 h
Leishmania donovani [5] = experiment: GSK_TCAKS: pIC50 Leishmania donovani viability assay using fluorescence intensity. Assay plates (1536-well) were prepared by adding 30nL per well of compound. For single shot assay, the final compound concentration was 5uM. […] Briefly, eGFP LdBOB axenic amastigotes were harvested, fixed and counted in a CASY cell counter (Roche-Applied Science). A final concentration of 1.5 * 10^5 cells per well were prepared in amastigote media containing 500 U/mL penicillin/streptomycin (Invitrogen) and 6uL was dispensed to each experimental well using a Multidrop Combi dispenser (Thermo Scientific). 6uL of assay media was dispensed to control columns used as reference for 100% compound response. Following incubation for 72 h at 37C, 5% CO2, 2 uL of resazurin was added to each well at a final concentration of 0.5 mM in phosphate buffered saline (PBS) with IGEPAL (Sigma-Aldrich), 0.05% (v/v).; assay type: functional, organism-based
Leishmania donovani [6] = experiment: (§2) GSK_TCAKS: pIC50 Leishmania donovani Imaging: Infected Macrophages. Assay plates (384-well) were prepared by adding 250nL of compound to each well. For single shot assay, the final compound concentration was 5 uM. […] Automated image analysis was performed with a script developed on Acapella High Content Imaging and Analysis Software (PerkinElmer). Output: Percent of infected macrophage cells were reported for each well.; assay type: functional, organism-based, Homo sapiens; conditions: THP-1
Leishmania donovani [7] = experiment: as §2, with “Amastigotes/Macrophages.” for “Infected Macrophages.”, “Average number” for “Percent”, “amastigotes per” for “infected”, “cell” for “cells”; assay type: functional, organism-based, Homo sapiens; conditions: THP-1
Leishmania donovani [8] = experiment: as §2, with “THP-1 Host” for “Infected”, “THP-1 cell count” for “Percent of infected macrophage cells”; assay type: functional, organism-based, Homo sapiens
[9] = test system: Trypanosoma brucei brucei; experiment: GSK_TCAKS: pIC50 Trypanosoma brucei viability assay using fluorescence intensity. Assay plates (1536-well) were prepared by dispensing 25nL of compound solution per well using an Echo acoustic dispenser (Labcyte).; assay type: functional, organism-based; conditions: Lister 427, 2 h
[10] = test system: Trypanosoma brucei brucei; experiment: GSK_TCAKS: pIC50 Trypanosoma brucei viability assay using luminiscence. Assay plates (1536-well) were prepared. T. brucei cultures were harvested and counted in a CASY cell counter. A parasite suspension was prepared at a final concentration of 5 * 10^4 cells/mL in complete HMI9 medium and 6uL was dispensed to all wells containing compounds using a Multidrop Combi dispenser. 6uL of HMI9 media with 0.4% DMSO were dispensed to control columns. Plates were incubated for 24 h at 37C, 5% CO2 then tempered for 10 min at room temperature. ATP content was quantified by adding 4 uL of CellTiter-Glo Reagent (Promega) according to the manufacturer's instructions. Luminescence was measured using a ViewLux.; assay type: functional, organism-based; conditions: Lister 427, CASY
[11] = GSK_TCAKS: pIC50 HepG2 human cell line viability assay using luminiscence. […] Seeding density was checked to ensure that new mono-layers were not more than 50% confluent at the time of harvesting. Cell suspension was added to 500 mL of the same medium at a final density of 1.2 * 10^5 cells/mL. This cell suspension was dispensed (25 uL, 3000 cells per well) into 384-well clear-bottom plates using a Multidrop Combi dispenser. Prior to addition of the cell suspension, the screening compounds (250 nL) were pre-dispensed into the plates with an Echo liquid handler. Plates were incubated for 48 h at 37C, 5% CO2. After incubation, plates equilibrated at room temperature for 30 min before proceeding to develop the luminescent signal. The signal developer, CellTiter-Glo Reagent, was allowed to equilibrate at room temperature for 30 min and added to the plates (25uL per well) using a Multidrop Combi dispenser. Plates were left for 10 min at room temperature for stabilization and then read using a ViewLux.; assay type: toxicity, cell-based
NIH3T3 = experiment: GSK_TCAKS: pIC50 NIH 3T3 cell line viability assay using luminiscence. Tissue culture surface treated assay plates (1536-well) were used. […] The 100% cells survival control was determined exposing the host-cells to a 0.5% DMSO concentration, whereas the 100% toxicity control was achieved by seeding the cells in presence of Amphotericin B at 50uM. Plates were incubated for four days at 37C, 5% CO2. The assay readout was developed by addition of 5uL of CellTiter-Glo Reagent following the manufacturer's instructions. Luminiscence was measured using a ViewLux.; assay type: functional, cell-based; conditions: Mus musculus, NIH3T3, 96 h
[12] = target: Sterol 14-alpha demethylase (Trypanosoma cruzi (strain CL Brener), UniProt Q7Z1V1); experiment: GSK_TCAKS: pIC50 CYP51 from Trypanosoma cruzi.; assay type: functional
Sequence of Sterol 14-alpha demethylase (Q7Z1V1 whole entry): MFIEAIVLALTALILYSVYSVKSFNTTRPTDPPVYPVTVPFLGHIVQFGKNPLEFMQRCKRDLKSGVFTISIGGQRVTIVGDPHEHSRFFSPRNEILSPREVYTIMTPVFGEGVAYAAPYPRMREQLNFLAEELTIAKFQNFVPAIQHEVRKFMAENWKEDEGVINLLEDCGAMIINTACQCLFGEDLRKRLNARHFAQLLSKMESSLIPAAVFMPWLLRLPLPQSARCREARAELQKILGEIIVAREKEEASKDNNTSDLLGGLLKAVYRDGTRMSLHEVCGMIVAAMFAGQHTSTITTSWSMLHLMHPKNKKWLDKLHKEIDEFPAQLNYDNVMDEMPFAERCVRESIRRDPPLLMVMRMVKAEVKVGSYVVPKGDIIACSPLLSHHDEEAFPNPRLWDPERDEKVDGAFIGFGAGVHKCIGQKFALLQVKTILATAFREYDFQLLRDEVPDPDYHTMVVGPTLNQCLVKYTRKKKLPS

SMILES	IC50 (Trypanosoma cruzi [1])	IC50 (Trypanosoma cruzi [2])	IC50 (Trypanosoma cruzi [3])	IC50 (Trypanosoma cruzi [4])	IC50 (Leishmania donovani [5])	IC50 (Leishmania donovani [6])	IC50 (Leishmania donovani [7])	IC50 (Leishmania donovani [8])	IC50 [9]	IC50 [10]	IC50 at 48 h [11]	IC50 (NIH3T3)	IC50 [12]
CN(Cc1ccc(C(N)=O)cc1)C(c1ccc(F)cc1)c1cccnc1 (centres undefined)	0.158 µM	0.251 µM	0.2 µM	> 50.1 µM	> 50.1 µM	> 50.1 µM	> 50.1 µM	> 50.1 µM	> 39.8 µM	> 39.8 µM	> 100 µM	31.6 µM	0.1 µM
CC(Cn1ccnc1)NC(=O)COc1ccc(Cl)c(Cl)c1 (centres undefined)	0.224 µM	0.501 µM	0.398 µM	> 50.1 µM	> 50.1 µM	> 50.1 µM	> 50.1 µM	> 50.1 µM	> 39.8 µM	> 39.8 µM	> 100 µM	> 50.1 µM	0.0631 µM
Cc1ccc(C)c(OC2CCN(C(=O)C(C)n3ccnc3)CC2)c1 (centres undefined)	0.178 µM	0.398 µM	0.316 µM	> 50.1 µM	2.51 µM	> 50.1 µM	0.316 µM	> 50.1 µM	> 39.8 µM	> 39.8 µM	> 100 µM	> 50.1 µM	0.1 µM
Cc1[nH]c2ccccc2c(=O)c1Cc1c(C)[nH]c2ccccc2c1=O	2.51 µM	3.16 µM	1 µM	> 50.1 µM	20 µM	> 50.1 µM	> 50.1 µM	> 50.1 µM	> 39.8 µM	> 39.8 µM	> 100 µM	> 50.1 µM	> 100 µM
O=C(c1cnn(-c2ccccc2)n1)N1CCCC(n2ccnc2)C1 (centres undefined)	0.0562 µM	0.0794 µM	0.0631 µM	> 50.1 µM	7.94 µM	> 50.1 µM	0.631 µM	> 50.1 µM	> 39.8 µM	31.6 µM	> 100 µM	20 µM	0.0794 µM
CNc1cc(C)nc(C2CN(C(=O)c3n[nH]c4ccccc34)CCO2)c1 (centres undefined)	1.26 µM	2.51 µM	0.794 µM	> 50.1 µM	> 50.1 µM	> 50.1 µM	> 50.1 µM	> 50.1 µM	20 µM	> 39.8 µM	> 100 µM	> 50.1 µM	> 100 µM
Cc1ccccc1OCC(=O)N1CCCN(c2cccnn2)CC1	0.316 µM	0.631 µM	0.501 µM	> 50.1 µM	12.6 µM	> 50.1 µM	> 50.1 µM	> 50.1 µM	> 39.8 µM	> 39.8 µM	> 100 µM	50.1 µM	0.0794 µM
Cc1ccc(S(=O)(=O)Nc2ccc(CN3CCN(C(=O)c4cccc(C#N)c4)CC3)cc2)cc1	0.501 µM	0.501 µM	0.398 µM	> 50.1 µM	10 µM	> 50.1 µM	25.1 µM	> 50.1 µM	0.158 µM	0.316 µM	> 100 µM	> 50.1 µM	> 100 µM

— ChEMBL document CHEMBL3430912, “GSK Tres Cantos Anti-Kinetoplastid Screening (TCAKS) Data”
